Measured values: patent US20140079634A1, “LABELED PE2I FORMULATION AND METHOD” (priority 2012, published 2014)

Columns and labels:
Assay type in all cases: in vivo
dopamine transporter [1] = target: dopamine transporter (Rattus norvegicus, UniProt P23977); test: SPECT scan, transporter occupancy and binding parameters (Parkinson's Diagnosis)
Description: A SPECT scan is performed. Strong evidence of different nonspecific binding in the striatal region, compared with the reference region is found, leading to bias in the estimate of dopaminergic denervation (range, 36%-94% severity) was found. […] The 6-hydroxydopamine lesion affected B(max) (control, 402±94 pmol/mL; lesioned, 117±120 pmol/mL; P=0.003) but not K app d (control, 331±63 pmol/mL; lesioned, 362±119 pmol/mL; P=0.63).

dopamine transporter [2] = target: T1, dopamine transporter (Homo sapiens, UniProt Q01959); test: SPECT imaging of the dopamine transporter, Lewy Body Dementia subjects; settings: six Lewy Body Dementia individuals, greater than 1 mCi intravenous
T1 construct: from tissue; host or cells: striatum in vivo (SPECT imaging of subjects)
T1 sequence (Q01959 whole entry): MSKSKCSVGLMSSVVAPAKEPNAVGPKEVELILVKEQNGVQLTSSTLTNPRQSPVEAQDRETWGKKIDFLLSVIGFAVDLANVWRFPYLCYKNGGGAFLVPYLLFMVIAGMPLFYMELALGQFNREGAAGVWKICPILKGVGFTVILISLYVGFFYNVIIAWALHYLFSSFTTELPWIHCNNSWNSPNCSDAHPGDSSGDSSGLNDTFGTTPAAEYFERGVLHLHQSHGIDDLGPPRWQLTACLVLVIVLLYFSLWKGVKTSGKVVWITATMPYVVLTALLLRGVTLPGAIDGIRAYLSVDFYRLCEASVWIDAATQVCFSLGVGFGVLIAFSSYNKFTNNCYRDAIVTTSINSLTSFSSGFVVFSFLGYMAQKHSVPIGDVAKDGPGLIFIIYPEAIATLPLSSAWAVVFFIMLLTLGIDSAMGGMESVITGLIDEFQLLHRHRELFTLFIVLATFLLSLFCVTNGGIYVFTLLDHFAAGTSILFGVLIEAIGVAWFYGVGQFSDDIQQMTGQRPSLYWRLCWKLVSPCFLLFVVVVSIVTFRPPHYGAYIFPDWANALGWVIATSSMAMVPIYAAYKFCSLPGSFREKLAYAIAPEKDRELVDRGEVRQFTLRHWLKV
Description: SPECT imaging of the dopamine transporter with ^123I-PE2I is conducted on six subjects previously diagnosed with Lewy Body Dementia, and on control individuals without a diagnosis of Lewy Body Dementia. For each individual tested, greater than 1 mCi of ^123I-PE2I is administered by intravenous injection at the onset of imaging. Images of the striatum are collected and analyzed by a radiologist to determine striatal binding potentials. In general, the methodology used for the SPECT imaging is the same as the methods described in Fischman et al., 1998, Synapse 29:125 41, which is incorporated herein by reference.

dopamine transporter [3] = target: T1, dopamine transporter; test: SPECT imaging of the dopamine transporter, ADHD subjects; settings: six ADHD individuals, greater than 1 mCi intravenous
Description: SPECT imaging of the dopamine transporter with 1231-PE2I is conducted on six subjects previously diagnosed with ADHD, and on control individuals without a diagnosis of ADHD. For each individual tested, greater than 1 mCi of 1231-PE2I is administered by intravenous injection at the onset of imaging. Images of the striatum are collected and analyzed by a radiologist to determine striatal binding potentials. In general, the methodology used for the SPECT imaging is the same as the methods described in Fischman et al., 1998, Synapse 29:125-41, which is incorporated herein by reference.

Sequence of dopamine transporter (Rattus norvegicus, UniProt P23977) (P23977 whole entry): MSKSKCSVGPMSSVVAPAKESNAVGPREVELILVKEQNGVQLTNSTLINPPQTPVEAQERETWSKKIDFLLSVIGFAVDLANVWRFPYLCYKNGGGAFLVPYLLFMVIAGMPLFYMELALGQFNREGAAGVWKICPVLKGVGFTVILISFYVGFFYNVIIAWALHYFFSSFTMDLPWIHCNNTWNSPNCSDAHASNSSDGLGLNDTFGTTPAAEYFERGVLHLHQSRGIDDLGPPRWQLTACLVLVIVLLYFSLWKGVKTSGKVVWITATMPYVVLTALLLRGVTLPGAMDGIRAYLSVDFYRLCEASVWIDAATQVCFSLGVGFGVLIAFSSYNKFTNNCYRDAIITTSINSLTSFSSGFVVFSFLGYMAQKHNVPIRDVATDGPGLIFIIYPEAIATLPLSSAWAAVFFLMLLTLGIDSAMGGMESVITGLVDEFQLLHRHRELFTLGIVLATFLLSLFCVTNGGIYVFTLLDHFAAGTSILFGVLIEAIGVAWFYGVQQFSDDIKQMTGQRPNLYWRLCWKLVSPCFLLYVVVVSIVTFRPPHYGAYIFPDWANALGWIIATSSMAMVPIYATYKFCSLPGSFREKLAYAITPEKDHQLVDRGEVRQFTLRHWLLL

COC(=O)[C@@H]1C2CC[C@H](C[C@@H]1c1ccc(C)cc1)N2C/C=C/I [[^123I]-PE2I, [^123I] N-(3-iodoprop-2E-enyl)-2β-carbomethoxy-3β-(4-methylphenyl)-nortropane]
B(max) (dopamine transporter [1]; 6-hydroxydopamine lesioned): 117 ± 120 pmol/mL | B(max) (dopamine transporter [1]; control): 402 ± 94 pmol/mL | striatal binding potential versus expected levels for aged matched normal individuals (dopamine transporter [2]): reduced binding potential | striatal binding potential versus expected levels for aged matched normal individuals (dopamine transporter [3]): reduced binding potential
